Assay results as given in patent publication US9902776B2, “Anti-EGFR antibody and anti-c-Met/anti-EGFR bispecific antibodies comprising the same” (Samsung Electronics Co., Ltd., priority 2013, dated 2018).
Blank lines part the entries; values can stand above or below the molecule they belong to.

Columns and labels:
[1] = tested on: SNU5 cells; assay: SNU5 xenograft tumor model in CB.17-SCID mice; assay type: in vivo; conditions: intravenous, 4 weeks; antibodies 1 mg/kg once a week, Irinotecan 10 mg/kg twice a week; initial size 100 mm^3
Experimental: SNU5 cells (ATCC) were injected into dorsal subcutis of 5-6 week old CB.17-SCID mice (Shanghai SLAC Laboratory Animal Co. Ltd.) at the amount of 3×10^6 cell/mouse, to prepare tumor models. When the tumor volume reaches 100 mm^3, 1 mg/kg of L3-1Y-IgG2 and 1 mg/kg of anti-c-Met/anti-EGFR bispecific antibody ME22S were intravenously administered alone or in combination once a week for 4 weeks in total. A group where PBS is intravenously administered thereto was used as a negative control, and a group where 10 mg/kg of an anticancer drug, Irinotecan (Pfizer Inc.), was intravenously administered thereto twice a week for 4 weeks in total, was used as a positive control. The tumor size (length×breadth×height) was measured twice each week, and at the last week, the mice were autopsied.

[2] = target: c-Met (Homo sapiens, UniProt P08581); assay: Specificity of expressed scFv of huAbF46; assay type: binding; design: endogenous in cells; host or cells: SNU638 (A8, A11); MKN45 (A11); conditions: after expression
c-Met, sequence (P08581 25-1390): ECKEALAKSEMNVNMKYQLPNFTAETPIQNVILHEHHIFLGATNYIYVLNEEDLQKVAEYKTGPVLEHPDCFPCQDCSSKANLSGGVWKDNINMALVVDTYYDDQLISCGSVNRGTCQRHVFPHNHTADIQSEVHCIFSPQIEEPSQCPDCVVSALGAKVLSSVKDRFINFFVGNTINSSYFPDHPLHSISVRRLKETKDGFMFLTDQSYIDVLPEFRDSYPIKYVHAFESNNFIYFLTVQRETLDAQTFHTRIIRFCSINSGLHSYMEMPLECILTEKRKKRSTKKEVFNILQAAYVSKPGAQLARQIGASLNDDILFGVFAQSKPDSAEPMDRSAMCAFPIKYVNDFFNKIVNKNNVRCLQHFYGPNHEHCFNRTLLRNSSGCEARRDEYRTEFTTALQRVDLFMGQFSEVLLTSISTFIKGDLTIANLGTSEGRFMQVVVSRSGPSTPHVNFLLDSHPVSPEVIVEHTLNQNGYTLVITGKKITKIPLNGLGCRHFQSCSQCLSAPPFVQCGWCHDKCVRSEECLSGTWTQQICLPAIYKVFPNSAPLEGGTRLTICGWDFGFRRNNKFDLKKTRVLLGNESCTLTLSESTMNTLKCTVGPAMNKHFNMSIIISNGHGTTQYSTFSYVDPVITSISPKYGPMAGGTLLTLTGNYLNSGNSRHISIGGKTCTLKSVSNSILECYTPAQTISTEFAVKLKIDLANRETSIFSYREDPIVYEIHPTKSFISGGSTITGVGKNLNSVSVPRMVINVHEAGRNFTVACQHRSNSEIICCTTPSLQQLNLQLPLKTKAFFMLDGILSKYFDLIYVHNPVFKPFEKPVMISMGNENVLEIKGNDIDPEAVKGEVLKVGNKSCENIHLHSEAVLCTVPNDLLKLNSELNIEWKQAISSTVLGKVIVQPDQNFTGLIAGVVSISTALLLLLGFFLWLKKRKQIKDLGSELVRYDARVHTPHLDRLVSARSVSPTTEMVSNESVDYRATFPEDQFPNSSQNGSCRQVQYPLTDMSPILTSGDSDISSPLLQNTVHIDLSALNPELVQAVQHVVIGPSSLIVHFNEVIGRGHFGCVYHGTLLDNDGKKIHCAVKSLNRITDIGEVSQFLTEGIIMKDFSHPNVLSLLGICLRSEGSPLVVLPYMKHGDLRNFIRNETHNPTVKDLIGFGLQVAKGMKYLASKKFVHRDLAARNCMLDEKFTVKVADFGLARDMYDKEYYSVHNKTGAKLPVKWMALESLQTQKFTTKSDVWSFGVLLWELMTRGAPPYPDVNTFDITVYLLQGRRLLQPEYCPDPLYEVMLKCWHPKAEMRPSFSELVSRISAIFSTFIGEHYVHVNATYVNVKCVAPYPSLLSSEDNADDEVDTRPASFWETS
Text: For use in constructing an scFv of the huAbF46 antibody from the heavy and light chain variable regions of the huAbF46 antibody, a gene was designed to have the structure of “VH-linker-VL” for each of the heavy and the light chain variable region, with the linker including the amino acid sequence “[…]” (SEQ ID NO: 54). A polynucleotide sequence (SEQ ID NO: 55) encoding the designed scFv of huAbF46 was synthesized in Bioneer and an expression vector for the polynucleotide had the nucleotide sequence of SEQ ID NO: 56.

Molecule: CCc1c2c(nc3ccc(OC(=O)N4CCC(N5CCCCC5)CC4)cc13)-c1cc3c(c(=O)n1C2)COC(=O)[C@]3(O)CC [Irinotecan, reference compound]
- final tumor size [1]: about 72 mm^3

- specificity to c-Met [2]: exhibit specificity to c-Met
B1: scFv of huAbF46: scFv of huAbF46, structure VH-linker-VL with linker SEQ ID NO: 54 (protein)
scFv: EVQLVESGGGLVQPGGSLRLSCAASGFTFTDYYMSWVRQAPGKGLEWLGFIRNKANGYTTEYSASVKGRFTISRDNSKNTLYLQMNSLRAEDTAVYYCARDNWFAYWGQGTLVTVSSGLGGLGGGGSGGGGSGGSSGVGSDIQMTQSPSSLSASVGDRVTITCKSSQSLLASGNQNNYLAWHQQKPGKAPKMLIIWASTRVSGVPSRFSGSGSGTDFTLTISSLQPEDFATYYCQQSYSAPLTFGQGTKVEIKR
